Results reported in patent US20090130064A1, “DIFFERENTIATION OF STEM CELLS AND STABILIZATION OF PHENOTYPICAL PROPERTIES OF PRIMARY CELLS” (priority 2004, published 2009).

Key:
HDAC = conditions: cited from earlier work
primary rat hepatocytes = test: DNA synthesis ([methyl-3H]-thymidine) in EGF-stimulated primary rat hepatocytes; format: cell-based
Excerpt: Male outbred Sprague-Dawley rats (200-300 g, Iffa Credo, Brussels, Belgium) were kept under controlled environmental conditions (12-hr light-dark cycle) and fed a standard diet (Animafabo A04, water ad libitum). Hepatocytes were isolated by a two-step collagenase perfusion as described (De Smet et al. In ‘Methods in Molecular Biology, Vol. 107: Cytochrome P450 Protocols’, Philips I R and Shephard E A, eds., pp 295-301, Humana Press, Totowa, 1998). Cell liability was >90% as determined by trypan blue exclusion. Cells (0.4×10^5 cells/cm^2) were plated in MEM/M199 (3:1), containing BSA (1 mg/ml), bovine insulin (10 μg/ml), L-glutamine (2 mM), FBS (10% v/v) and antibiotics (7.3 IU/ml benzyl penicillin, 50 μg/ml streptomycin sulphate, 50 μg/ml kanamycin monosulphstep and 10 μg/ml sodium ampicillin). Four hours after plating, serum-containing medium was removed and fresh serum-free medium was added to the cultures. Culture medium was refreshed daily. EGF (50 ng/ml) was added 4 hours after plating. A 100 mM stock solution of 4-Me2N-BAVAH was prepared in ethanol.
Hepatocytes were cultured in triplicate in 35 mm tissue culture dishes (Beckton Dickinson, UK). Cells were incubated with [methyl-^3H]-thymidine (25 Ci/mmol (2 μCi/ml)) for 24 hours prior to harvesting. Its incorporation was measured by liquid scintillation counting (Wallac 1410; counting efficiency: 67.5%) after trichloroacetic acid precipitation of the DNA. Results are expressed as counts per minute (cpm) per μg of total cellular proteins. Protein concentration of the samples was determined according to the Bradford procedure (Bradford. Anal Biochem 72: 248-254, 1976), using BSA as a standard.

rat hepatocytes = test: Lactate dehydrogenase index and morphology in cultured rat hepatocytes; format: cell-based; conditions: 50 μM
Protocol: The % LDH leakage of the cells was calculated as the result of the ratio: [100×LDH activity in supernatant]/[LDH activity in (supernatant+cells)]
Medium samples were collected at 72 hours of culture and analyzed for their albumin content by an enzyme-linked immunosorbent assay (ELISA) as described (Dunn et al. Biotechnol Prog 7: 237-245, 1991) Cell morphology was analyzed by light microscopy (×100). Pictures were taken using an Optiphot Nikon Phase Contrast microscope (Cetec, Brussels, Belgium).

Cx26 = Cx26 expression and localization (immunoblotting, immunocytochemistry) in rat hepatocytes; format: cell-based; conditions: 1 μM TSA
Protocol: In all conditions, the hepatocytes were cultivated as a monolayer configuration, and samples were taken at days 1, 4 and 7 (D1, D4, D7) of the cultivation time.
Proteins (25 or 50 μg) were resolved on SDS-PAGE (7.5, 10 or 12%) and blotted afterwards onto nitrocellulose membranes. After blocking with non-fatty milk, membranes were incubated with appropriate concentrations of primary and secondary antibodies (HRP labeled). Proteins were detected using the ECL detection system (Amersham Biosciences). Primary antibodies: Cx26 (Zymed, 1/250), Cx32 (Sigma, 1/500), Cx43 (Zymed, 1/100).
Hepatocytes were fixed with cold ethanol, peremeabilised with Triton X-100 (Sigma) and blocked with non-fatty milk. Following incubation with appropriate concentrations of primary and secondary antibodies (FITC or TRITC labeled), samples were mounted with DAPI-containing Vectashield (Vector Laboratories). Detection was performed by fluorescence microscopy (Leica DMR/XA).

rat BMSC = test: Albumin ELISA, ALB secretion by rat BMSC-derived hepatocyte-like cells; format: cell-based
Protocol: Then, cells were cultivated in the presence of liver-specific (LSP) cytokines either as a cocktail [basal medium+10 ng/ml FGF-4 (fibroblast growth factor type 4), 20 ng/ml HGF (hepatic growth factor) (all from R&D), 1×ITS (insulin, transferrin, selenious acid) and 0.05 μM Dex (dexamethasone) (all from Sigma)] or separately (until day 3: basal medium+10 ng/ml FGF-4; from days 3 to 6: basal medium+20 ng/ml HGF; from day 6 on: basal medium+20 ng/ml HGF+1×ITS and 0.05 μM Dex). […] The culture media were changed every three days.
ALB concentrations secreted into the media were analysed by competitive enzyme-linked immunosorbent assay (ELISA) as described (Koebe et al. Int J Artif Organs 17: 95-106, 1994). The ALB levels were normalized with respect to the media used.

Compound	HDAC inhibition, concentration range (HDAC)	inhibitory effect on DNA replication (primary rat hepatocytes; 50 μM added at 24 hours or 48 hours)	EGF-induced DNA synthesis (primary rat hepatocytes; 50 μM from time of plating)	DNA synthesis (primary rat hepatocytes; 50 μM maintained until 48 hours)	reduction in 3H-thymidine incorporation compared to untreated control cultures (primary rat hepatocytes; 50 μM, withdrawal at 24 hours of culture, measured at 72 hours) [%]	cytotoxicity (LDH leakage, morphology) (rat hepatocytes)	expression of Cx26 (Cx26)	localization of Cx26 (Cx26)	cell death (rat BMSC; cocktail of LSP cytokines + TSA, from day 16 on)	increase of the ALB secretion from day 15 to 17 (rat BMSC; sequential cytokines + 1 μM TSA) [fold]	ALB secretion (rat BMSC; sequential cytokines + 1 μM TSA, from day 15 on)
CN(C)c1ccc(C(=O)NCCCCC(=O)NO)cc1 [4-Me2N-BAVAH, 5-(4-dimethylaminobenzoyl)-aminovaleric acid hydroxamide]	micromolar range	less or no inhibitory effect	totally suppressed	no DNA synthesis occurred	50.9±1.6	not due to cytotoxicity					
CC(C=CC(=O)NO)=CC(C)C(=O)c1ccc(N(C)C)cc1 (centres unmarked) [TSA]							decreases the expression	perinuclear localization	cell death had occurred	2.5	significantly upregulated
